Test results published in the supplement of paper PMC10307832.

What was measured:
Assay in all cases: relative viability (nuclei count vs DMSO), 5 days (fraction); higher = more cells survive
AZ505 + Bortezomib = compound: C1CCC(CC1)N(CCNCCC2=C3C(=C(C=C2)O)NC(=O)CO3)C(=O)CCNCCC4=CC(=C(C=C4)Cl)Cl [AZ505] + CC(C)C[C@H](NC(=O)[C@H](Cc1ccccc1)NC(=O)c1cnccn1)B(O)O [Bortezomib] (partner 0.002 µM)
Method in brief: (§1)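 A single step with final 0.05% Triton X-100, 1% formaldehyde and 1 ug/ml Hoechst fixed the cells and stained nuclei 5 days after treatment. Lung cancer cell lines in 1536-well plates had been treated by pin tool the day after seeding with one drug alone or a fixed anchor-drug dose plus five library-drug doses (not always all listed) in √10 steps, and nuclei were counted on 4× images. Relative viability is the ratio of nuclei in treated wells to nuclei in vehicle wells, taken as the median of duplicate plates.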

AZ505 + Pictilisib = compound: C1CCC(CC1)N(CCNCCC2=C3C(=C(C=C2)O)NC(=O)CO3)C(=O)CCNCCC4=CC(=C(C=C4)Cl)Cl [AZ505] + CS(=O)(=O)N1CCN(Cc2cc3nc(-c4cccc5[nH]ncc45)nc(N4CCOCC4)c3s2)CC1 [Pictilisib] (partner 1 µM)
Method in brief: as §1

AZ505 + Olaparib = compound: C1CCC(CC1)N(CCNCCC2=C3C(=C(C=C2)O)NC(=O)CO3)C(=O)CCNCCC4=CC(=C(C=C4)Cl)Cl [AZ505] + O=C(c1cc(Cc2n[nH]c(=O)c3ccccc23)ccc1F)N1CCN(C(=O)C2CC2)CC1 [Olaparib] (partner 8 µM)
Method in brief: as §1

Dactolisib + Dasatinib = compound: Cn1c(=O)n(-c2ccc(C(C)(C)C#N)cc2)c2c3cc(-c4cnc5ccccc5c4)ccc3ncc21 [Dactolisib] + Cc1nc(Nc2ncc(C(=O)Nc3c(C)cccc3Cl)s2)cc(N2CCN(CCO)CC2)n1 [Dasatinib] (partner 0.075 µM)
Method in brief: as §1

Cell Line | relative viability (AZ505 + Bortezomib; first compound 0.08 µM) | relative viability (AZ505 + Bortezomib; first compound 0.253 µM) | relative viability (AZ505 + Bortezomib; first compound 0.8 µM) | relative viability (AZ505 + Bortezomib; first compound 2.53 µM) | relative viability (AZ505 + Bortezomib; first compound 8 µM) | relative viability (AZ505 + Pictilisib; first compound 0.08 µM) | relative viability (AZ505 + Pictilisib; first compound 0.253 µM) | relative viability (AZ505 + Pictilisib; first compound 0.8 µM) | relative viability (AZ505 + Pictilisib; first compound 2.53 µM) | relative viability (AZ505 + Pictilisib; first compound 8 µM) | relative viability (AZ505 + Olaparib; first compound 0.08 µM) | relative viability (AZ505 + Olaparib; first compound 0.253 µM) | relative viability (AZ505 + Olaparib; first compound 0.8 µM) | relative viability (AZ505 + Olaparib; first compound 2.53 µM) | relative viability (AZ505 + Olaparib; first compound 8 µM) | relative viability (Dactolisib + Dasatinib; first compound 0.002 µM) | relative viability (Dactolisib + Dasatinib; first compound 0.006325 µM) | relative viability (Dactolisib + Dasatinib; first compound 0.02 µM) | relative viability (Dactolisib + Dasatinib; first compound 0.06325 µM) | relative viability (Dactolisib + Dasatinib; first compound 0.2 µM)
SK-LU-1 | 0.703 | 0.561 | 0.778 | 0.923 | 0.761 | 0.333 | 0.419 | 0.332 | 0.323 | 0.435 | 0.268 | 0.364 | 0.349 | 0.314 | 0.326 | 0.148 | 0.172 | 0.162 | 0.145 | 0.127
LXF-289 | 0.875 | – | 1.02 | 0.975 | 1.02 | 0.706 | – | 0.773 | 0.731 | 0.818 | 0.988 | 1.11 | 1.01 | 1.05 | 1.01 | 0.22 | 0.21 | 0.235 | 0.221 | 0.121
NCI-H460 | 0.945 | 1.24 | 1.04 | 1.09 | 1.11 | 0.264 | 0.299 | 0.337 | 0.29 | 0.364 | 0.365 | 0.477 | 0.388 | 0.46 | 0.477 | 0.568 | 0.503 | 0.448 | 0.185 | 0.112
NCI-H2009 | 0.982 | 0.929 | 1.04 | 0.657 | 0.901 | 0.633 | 0.703 | 0.688 | 0.486 | 0.696 | 0.64 | 0.675 | 0.647 | 0.652 | 0.629 | 0.3 | 0.283 | 0.291 | 0.194 | 0.154
201T | 1.09 | 1.11 | 1.06 | 1.11 | 1.07 | 0.651 | 0.678 | 0.613 | 0.633 | 0.674 | 0.851 | 0.857 | 0.82 | 0.862 | 0.846 | 0.601 | 0.538 | 0.524 | 0.554 | 0.346
NCI-H23 | 0.674 | – | 1.21 | 0.956 | 1.07 | 0.402 | – | 0.582 | 0.416 | 0.478 | 0.256 | 0.362 | 0.305 | 0.364 | 0.337 | 0.852 | 0.682 | 0.679 | 0.325 | 0.302
LOU-NH91 | 0.46 | 0.508 | 0.536 | 0.527 | 0.453 | 0.493 | 0.512 | 0.537 | 0.452 | 0.531 | 0.87 | 0.897 | 0.886 | 0.903 | 0.894 | 0.533 | 0.591 | 0.504 | 0.438 | 0.351
NCI-H2085 | 0.958 | 1.01 | 0.934 | 1.05 | 1.1 | 0.444 | 0.39 | 0.502 | 0.435 | 0.531 | 0.715 | 0.797 | 0.654 | 0.735 | 0.729 | 0.179 | 0.249 | 0.229 | 0.169 | 0.209
COR-L23 | 0.996 | 1.1 | 0.888 | 0.925 | 0.832 | 0.546 | 0.741 | 0.486 | 0.686 | 0.535 | 0.282 | 0.344 | 0.32 | 0.374 | 0.38 | 0.634 | 0.471 | 0.543 | 0.169 | 0.144
